Values of other authors as cited in patent US7235236B2, “Polynucleotide encoding human adenylylcyclase VI and uses thereof for enhancing cardiac function” (priority 1995, dated 2007).

System: GRK
Details: chronic reduction of beta1-AR activation

CC(C)NCC(O)COc1ccc(COCCOC(C)C)cc1 (stereo not shown) [bisoprolol]
GRK activity after chronic treatment: downregulation of GRK activity
